Reference: PMC6880826 (Beilstein Journal of Organic Chemistry, 2019)
Read-outs that look alike come from different tables or passages of the source.

Legend:
[1] = Metabolic stability in mouse liver microsomes (MLM); assay type: in vitro ADME
[2] = Mouse pharmacokinetics, plasma and brain, oral dose; assay type: in vivo, CD1 mouse; conditions: p.o. 10 mg/kg
From the text: The route of administration and dose were selected to most closely match relevant published mouse disease model studies. […] Table S1: Study design summary S8 (1 picture or pasted object on this page, not shown here)

Notum(81-451 Cys330Ser) = target: T1, Notum(81-451 Cys330Ser) (Homo sapiens, UniProt Q6P988, C330S); experiment: Notum OPTS fluorescence inhibition assay
T1 sequence (Q6P988 81-451 C330S): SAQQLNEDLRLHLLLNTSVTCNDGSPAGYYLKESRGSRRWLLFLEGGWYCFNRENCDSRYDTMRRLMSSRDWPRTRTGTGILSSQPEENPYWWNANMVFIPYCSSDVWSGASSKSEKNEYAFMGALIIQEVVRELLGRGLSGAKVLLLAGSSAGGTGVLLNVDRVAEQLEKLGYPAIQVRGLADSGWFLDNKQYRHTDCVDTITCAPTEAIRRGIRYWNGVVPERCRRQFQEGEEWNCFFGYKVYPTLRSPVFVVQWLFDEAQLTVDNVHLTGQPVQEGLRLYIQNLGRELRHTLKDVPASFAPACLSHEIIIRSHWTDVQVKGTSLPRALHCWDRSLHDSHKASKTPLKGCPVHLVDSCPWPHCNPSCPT

MDCK-MDR1 monolayer = MDCK-MDR1 monolayer permeability / P-gp efflux; assay type: in vitro ADME; conditions: for efflux ratio: Table S4; for MDCK-mdr1 ER / MDCK-mdr1 AB / MDCK-mdr1 BA: csv file; for MDCK-mdr1 AB: AB direction; for MDCK-mdr1 BA: BA direction
P-gp (MDR1) = experiment: MDCK-MDR1 monolayer permeability / P-gp efflux; assay type: in vitro ADME; conditions: dog; for Papp: MDCK-MDR1, Table S4; for MDCK-MDR1 AB Papp: Table S4; for efflux ratio: MDCK-MDR1, csv file, read-out: MDCK-mdr1 ER
[3] = Table S4, mouse liver microsomes
[4] = AB direction, read-out: MDCK-MDR1 AB Papp
[5] = BA direction, read-out: MDCK-MDR1 BA Papp

Row | SMILES | MLM Cli [1, 3] [µL/min/mg] | IC50 (Notum(81-451 Cys330Ser)) [nM] | MLM Cli ([1]; csv file) [µL/min/mg] | efflux ratio (MDCK-MDR1 monolayer) | MDCK-mdr1 AB (MDCK-MDR1 monolayer) [x10–6 cm/s] | MDCK-mdr1 BA (MDCK-MDR1 monolayer) [x10–6 cm/s] | Papp (P-gp (MDR1); [4]) [×10⁻⁶ cm/s] | Papp (P-gp (MDR1); [5]) [×10⁻⁶ cm/s] | further results
1 | O=C(CSc1ncnc2c(C3CC3)c(Cl)sc12)N1CCS(=O)(=O)CC1 [Compound 17d] |  | 48 |  |  |  |  |  |  | 
2 | O=C(CSc1ncnc2c(C3CC3)c(Cl)sc12)N1CC2COCC2C1 (stereo not shown) [Compound 17e] | > 500 | 10 | > 500 |  |  |  |  |  | 
3 | O=C(CSc1ncnc2c(C3CC3)c(Cl)sc12)N1CC2(COC2)C1 [Compound 17f] | 100 | 10 | 100 |  |  |  |  |  | 
4 | O=C1CN(C(=O)CSc2ncnc3c(C4CC4)c(Cl)sc23)CCN1 [Compound 17i] | 24 | 7.1 | 24 | 8.2 | 7.9 | 65 | 7.9 | 65 | MDCK-mdr1 ER (MDCK-MDR1 monolayer): 8.2
5 | O=C1CN(C(=O)CSc2ncnc3c(C4CC4)c(Cl)sc23)CCCN1 [Compound 17j] |  | 36 |  |  |  |  |  |  | 
6 | O=C1CCN(C(=O)CSc2ncnc3c(C4CC4)c(Cl)sc23)CCN1 [Compound 17k] |  | 49 |  |  |  |  |  |  | 
7 | O=C(CSc1ncnc2c(C3CC3)c(Cl)sc12)N1CCc2ncccc2C1 [Compound 17l] |  | 4.6 |  |  |  |  |  |  | 
8 | O=C(CSc1ncnc2c(C3CC3)c(Cl)sc12)N1CCn2ccnc2C1 [Compound 17m] | 290 | 2.7 | 290 | 1.2 | 21 | 25 | 21 | 25 | efflux ratio (P-gp (MDR1)): 1.2
9 | O=C(CSc1ncnc2c(C3CC3)c(Cl)sc12)N1CCn2cncc2C1 [Compound 17n] | 49 | 2.5 | 49 | 3.4 | 9 | 31 | 9 | 31 | efflux ratio (P-gp (MDR1)): 3.4
10 | O=C(CSc1ncnc2c(C3CC3)c(Cl)sc12)N1CCc2[nH]cnc2C1 [Compound 17o] |  | 2.3 |  |  |  |  |  |  | 
11 | O=C(CSc1ncnc2c(C3CC3)c(Cl)sc12)N1CCn2cnnc2C1 [Compound 17p] | 29 | 1.2 | 29 | 98 | 0.95 | 93 |  | 93 | MDCK-mdr1 ER (MDCK-MDR1 monolayer): 98; MDCK-MDR1 AB Papp (P-gp (MDR1); AB direction): 0.95 ×10⁻⁶ cm/s
12 | O=C(CSc1ncnc2c(C3CC3)c(Cl)sc12)N1CCn2c(nnc2C(F)(F)F)C1 [Compound 17q] | 190 | 8 | 190 | 2.8 | 12 | 34 | 12 | 34 | efflux ratio (P-gp (MDR1)): 2.8
13 | O=C(CSc1ncnc2c(C3CC3)c(Cl)sc12)N1CCn2nncc2C1 [Compound 17r] | 110 | 2.4 | 110 | 1.1 | 26 | 28 | 26 | 28 | efflux ratio (P-gp (MDR1)): 1.1

Continued, in another order:

Row | MLM Cli [1, 3] [µL/min/mg] | IC50 (Notum(81-451 Cys330Ser)) [nM] | MLM Cli ([1]; csv file) [µL/min/mg] | efflux ratio (MDCK-MDR1 monolayer) | MDCK-mdr1 AB (MDCK-MDR1 monolayer) [x10–6 cm/s] | MDCK-mdr1 BA (MDCK-MDR1 monolayer) [x10–6 cm/s] | Papp (P-gp (MDR1); [4]) [×10⁻⁶ cm/s] | Papp (P-gp (MDR1); [5]) [×10⁻⁶ cm/s] | SMILES | further results
14 | 1e+06 |  |  |  |  |  |  |  | O=C(O)CSc1ncnc2c(C3CC3)c(Cl)sc12 [Compound 1] | Cli in mouse liver microsomes (MLM) [1]: 1.0 μL/min/mg protein; Cmax ([2]; CD1, po, brain): 500 ng/g; Tmax ([2]; CD1, po, brain): 2 h; half-life ([2]; CD1, po, brain): 7.1 h; AUC(0-inf) ([2]; CD1, po, plasma): 354 µg·h/mL; AUC(0-t) ([2]; CD1, po, plasma): 303 µg·h/mL; Cmax ([2]; CD1, po, plasma): 35400 ng/mL; Tmax ([2]; CD1, po, plasma): 2 h; half-life ([2]; CD1, po, plasma): 8.8 h; AUC0→t ([2]; brain): 3,700 h·ng/g; AUC0→∞ ([2]; brain): 4,080 h·ng/g
15 |  | 7.5 |  |  |  |  |  |  | CN(C)C(=O)CSc1ncnc2c(C3CC3)c(Cl)sc12 [Compound 17a] | 
16 |  | 91 |  |  |  |  |  |  | O=C(CSc1ncnc2c(C3CC3)c(Cl)sc12)N1CCCCC1 [Compound 17b] | 
17 | > 500 | 18 | > 500 | 0.95 | 40 | 38 | 40 | 38 | O=C(CSc1ncnc2c(C3CC3)c(Cl)sc12)N1CCOCC1 [Compound 17c] | MDCK-mdr1 ER (MDCK-MDR1 monolayer): 0.95
18 | 19 | 1.5 | 19 | 3.7 | 3.8 | 14 |  | 14 | O=C1CN(C(=O)CSc2ncnc3c(C4CC4)c(Cl)sc23)CN1 [Compound 17g] | MDCK-mdr1 ER (MDCK-MDR1 monolayer): 3.7; MDCK-MDR1 AB Papp (P-gp (MDR1); AB direction): 3.8 ×10⁻⁶ cm/s
19 | 45 | 1.5 | 45 | 2.2 | 6 | 13 | 6 | 13 | CN1CN(C(=O)CSc2ncnc3c(C4CC4)c(Cl)sc23)CC1=O [Compound 17h] | efflux ratio (P-gp (MDR1)): 2.2
